Measurements taken from ChEMBL document CHEMBL1145498, “A systematic interaction map of validated kinase inhibitors with Ser/Thr kinases” (Proc Natl Acad Sci U S A, 2007).

Columns and labels:
[1] = biological target: Cyclin-dependent kinase 16 (Homo sapiens) (UniProt Q00536)
[2] = biological target: Serine/threonine-protein kinase pim-1 (Homo sapiens) (UniProt P11309)
[3] = biological target: Serine/threonine-protein kinase PAK 4 (Homo sapiens) (UniProt O96013)
[4] = biological target: Tyrosine-protein kinase JAK1 (Homo sapiens) (UniProt P23458)
Tyrosine-protein kinase JAK1 (Homo sapiens), sequence (P23458 whole entry): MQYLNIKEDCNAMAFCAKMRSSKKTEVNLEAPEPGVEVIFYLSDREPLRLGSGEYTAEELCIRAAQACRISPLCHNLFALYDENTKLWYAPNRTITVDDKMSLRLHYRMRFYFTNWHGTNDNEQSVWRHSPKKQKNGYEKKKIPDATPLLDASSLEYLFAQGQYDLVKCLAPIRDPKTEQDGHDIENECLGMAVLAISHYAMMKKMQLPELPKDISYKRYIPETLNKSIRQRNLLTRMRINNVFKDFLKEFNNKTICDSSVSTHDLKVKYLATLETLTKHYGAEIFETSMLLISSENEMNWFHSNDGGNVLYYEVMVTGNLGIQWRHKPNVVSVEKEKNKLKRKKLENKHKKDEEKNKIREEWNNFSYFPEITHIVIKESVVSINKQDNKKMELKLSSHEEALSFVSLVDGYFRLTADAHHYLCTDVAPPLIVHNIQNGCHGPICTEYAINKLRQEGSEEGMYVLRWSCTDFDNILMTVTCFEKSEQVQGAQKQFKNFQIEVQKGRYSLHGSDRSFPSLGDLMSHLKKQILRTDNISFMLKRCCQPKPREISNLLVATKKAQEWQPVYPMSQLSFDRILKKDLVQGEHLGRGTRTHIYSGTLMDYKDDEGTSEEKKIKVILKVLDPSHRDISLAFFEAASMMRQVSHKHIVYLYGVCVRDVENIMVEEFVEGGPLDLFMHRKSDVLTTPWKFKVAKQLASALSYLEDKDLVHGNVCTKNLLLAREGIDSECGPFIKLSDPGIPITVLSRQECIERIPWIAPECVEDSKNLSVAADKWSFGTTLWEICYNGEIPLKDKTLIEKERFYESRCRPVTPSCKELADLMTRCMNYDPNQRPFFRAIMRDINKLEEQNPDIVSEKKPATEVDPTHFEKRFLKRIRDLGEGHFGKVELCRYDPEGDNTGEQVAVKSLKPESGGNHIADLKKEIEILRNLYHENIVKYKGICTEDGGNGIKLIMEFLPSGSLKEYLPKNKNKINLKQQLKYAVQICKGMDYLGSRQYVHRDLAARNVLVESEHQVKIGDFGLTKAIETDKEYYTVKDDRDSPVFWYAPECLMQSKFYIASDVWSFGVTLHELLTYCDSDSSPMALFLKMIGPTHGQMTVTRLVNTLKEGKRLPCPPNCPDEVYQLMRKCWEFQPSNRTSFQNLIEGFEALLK

[5] = biological target: Serine/threonine-protein kinase 10 (Homo sapiens) (UniProt O94804)
Serine/threonine-protein kinase 10 (Homo sapiens), sequence (O94804 whole entry, looked up): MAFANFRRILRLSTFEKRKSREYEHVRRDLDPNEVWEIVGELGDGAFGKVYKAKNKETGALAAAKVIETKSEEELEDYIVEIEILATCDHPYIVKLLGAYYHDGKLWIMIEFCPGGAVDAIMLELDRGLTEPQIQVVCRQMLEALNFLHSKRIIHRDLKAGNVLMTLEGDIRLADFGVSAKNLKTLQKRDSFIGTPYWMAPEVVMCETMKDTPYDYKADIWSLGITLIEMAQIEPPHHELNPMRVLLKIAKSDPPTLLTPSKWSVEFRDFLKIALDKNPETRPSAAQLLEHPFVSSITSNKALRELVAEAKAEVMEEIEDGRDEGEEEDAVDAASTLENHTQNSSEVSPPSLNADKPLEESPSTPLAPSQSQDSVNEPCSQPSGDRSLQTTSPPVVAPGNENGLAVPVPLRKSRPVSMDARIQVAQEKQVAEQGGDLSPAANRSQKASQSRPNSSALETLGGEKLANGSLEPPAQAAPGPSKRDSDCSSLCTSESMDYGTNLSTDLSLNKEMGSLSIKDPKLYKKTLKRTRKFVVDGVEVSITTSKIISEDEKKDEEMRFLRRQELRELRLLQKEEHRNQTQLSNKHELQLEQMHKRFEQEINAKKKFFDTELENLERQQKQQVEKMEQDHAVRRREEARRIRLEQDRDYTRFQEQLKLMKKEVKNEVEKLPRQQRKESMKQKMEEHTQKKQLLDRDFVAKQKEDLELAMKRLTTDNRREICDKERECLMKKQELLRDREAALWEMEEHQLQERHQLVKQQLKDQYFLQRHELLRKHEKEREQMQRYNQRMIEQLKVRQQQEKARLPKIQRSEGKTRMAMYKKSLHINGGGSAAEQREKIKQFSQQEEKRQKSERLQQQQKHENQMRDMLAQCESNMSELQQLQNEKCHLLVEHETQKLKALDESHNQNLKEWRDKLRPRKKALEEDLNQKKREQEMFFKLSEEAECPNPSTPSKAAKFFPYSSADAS

[6] = biological target: Serine/threonine-protein kinase VRK2 (Homo sapiens) (UniProt Q86Y07)
[7] = biological target: Serine/threonine-protein kinase PLK1 (Homo sapiens) (UniProt P53350)
[8] = biological target: T1, Serine/threonine-protein kinase Nek2 (Homo sapiens) (UniProt P51955)
T1 sequence (whole entry): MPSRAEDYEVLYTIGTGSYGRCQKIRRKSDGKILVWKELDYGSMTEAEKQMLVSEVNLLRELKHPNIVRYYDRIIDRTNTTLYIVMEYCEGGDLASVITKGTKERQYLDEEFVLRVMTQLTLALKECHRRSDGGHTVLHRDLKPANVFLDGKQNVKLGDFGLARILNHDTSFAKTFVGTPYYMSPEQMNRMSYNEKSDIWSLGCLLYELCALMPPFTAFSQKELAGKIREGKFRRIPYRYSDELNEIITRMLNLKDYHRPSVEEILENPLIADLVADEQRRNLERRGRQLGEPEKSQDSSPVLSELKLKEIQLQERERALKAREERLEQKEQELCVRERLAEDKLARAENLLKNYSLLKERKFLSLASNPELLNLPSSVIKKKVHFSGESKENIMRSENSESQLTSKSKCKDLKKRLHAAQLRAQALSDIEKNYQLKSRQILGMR

[9] = biological target: T2, Serine/threonine-protein kinase VRK3 (Homo sapiens) (UniProt Q8IV63)
T2 sequence (whole entry): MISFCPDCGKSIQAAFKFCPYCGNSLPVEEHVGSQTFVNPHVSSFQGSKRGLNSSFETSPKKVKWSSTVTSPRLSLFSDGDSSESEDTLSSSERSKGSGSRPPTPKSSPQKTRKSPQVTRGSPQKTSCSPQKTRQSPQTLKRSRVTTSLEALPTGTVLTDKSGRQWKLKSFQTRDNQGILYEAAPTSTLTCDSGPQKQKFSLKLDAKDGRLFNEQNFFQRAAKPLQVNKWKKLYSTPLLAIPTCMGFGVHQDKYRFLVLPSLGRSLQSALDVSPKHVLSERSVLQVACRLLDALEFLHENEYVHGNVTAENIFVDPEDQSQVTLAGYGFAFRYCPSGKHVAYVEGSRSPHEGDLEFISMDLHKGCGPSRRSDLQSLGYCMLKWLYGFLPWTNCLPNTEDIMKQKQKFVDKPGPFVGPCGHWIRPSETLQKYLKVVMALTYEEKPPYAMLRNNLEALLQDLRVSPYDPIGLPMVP

[10] = biological target: STE20-like serine/threonine-protein kinase (Homo sapiens) (UniProt Q9H2G2)
[11] = biological target: Serine/threonine-protein kinase 26 (Homo sapiens) (UniProt Q9P289)
[12] = biological target: Serine/threonine-protein kinase 16 (Homo sapiens) (UniProt O75716)
Serine/threonine-protein kinase 16 (Homo sapiens), sequence (O75716 whole entry): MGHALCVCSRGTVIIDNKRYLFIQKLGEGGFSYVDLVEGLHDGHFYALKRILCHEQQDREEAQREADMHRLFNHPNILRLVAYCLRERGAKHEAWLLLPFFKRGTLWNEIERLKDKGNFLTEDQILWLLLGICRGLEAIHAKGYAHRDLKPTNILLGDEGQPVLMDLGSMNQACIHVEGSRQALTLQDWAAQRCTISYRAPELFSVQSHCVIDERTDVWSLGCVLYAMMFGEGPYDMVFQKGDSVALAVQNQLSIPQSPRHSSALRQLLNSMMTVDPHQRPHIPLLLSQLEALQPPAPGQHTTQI

[13] = biological target: T3, Calcium/calmodulin-dependent protein kinase type IV (Homo sapiens) (UniProt Q16566)
T3 sequence (whole entry): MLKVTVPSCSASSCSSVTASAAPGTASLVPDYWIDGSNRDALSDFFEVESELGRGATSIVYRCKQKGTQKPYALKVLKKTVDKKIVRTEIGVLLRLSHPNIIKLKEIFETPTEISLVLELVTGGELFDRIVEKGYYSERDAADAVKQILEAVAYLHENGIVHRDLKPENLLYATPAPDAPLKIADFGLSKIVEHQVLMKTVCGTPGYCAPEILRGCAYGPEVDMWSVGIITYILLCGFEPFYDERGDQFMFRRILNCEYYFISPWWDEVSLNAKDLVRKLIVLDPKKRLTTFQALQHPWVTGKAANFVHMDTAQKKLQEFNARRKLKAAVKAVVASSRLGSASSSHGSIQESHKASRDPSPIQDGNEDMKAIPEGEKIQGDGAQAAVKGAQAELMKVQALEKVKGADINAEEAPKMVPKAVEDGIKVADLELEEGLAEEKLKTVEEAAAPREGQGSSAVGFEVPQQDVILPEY

[14] = biological target: Cyclin-dependent kinase-like 1 (Homo sapiens) (UniProt Q00532)
Cyclin-dependent kinase-like 1 (Homo sapiens), sequence (Q00532 whole entry): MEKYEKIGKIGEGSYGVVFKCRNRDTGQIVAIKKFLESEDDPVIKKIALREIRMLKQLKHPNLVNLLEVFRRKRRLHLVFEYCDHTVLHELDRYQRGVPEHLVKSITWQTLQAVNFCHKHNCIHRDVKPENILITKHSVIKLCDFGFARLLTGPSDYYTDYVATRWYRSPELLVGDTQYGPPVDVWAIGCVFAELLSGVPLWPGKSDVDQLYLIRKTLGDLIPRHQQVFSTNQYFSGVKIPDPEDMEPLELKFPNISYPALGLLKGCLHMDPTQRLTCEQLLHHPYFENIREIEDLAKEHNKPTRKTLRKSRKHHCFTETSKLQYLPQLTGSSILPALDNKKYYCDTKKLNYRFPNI

[15] = biological target: Calcium/calmodulin-dependent protein kinase type 1G (Homo sapiens) (UniProt Q96NX5)
[16] = biological target: T4, Serine/threonine-protein kinase 4 (Homo sapiens) (UniProt Q13043)
T4 sequence (whole entry): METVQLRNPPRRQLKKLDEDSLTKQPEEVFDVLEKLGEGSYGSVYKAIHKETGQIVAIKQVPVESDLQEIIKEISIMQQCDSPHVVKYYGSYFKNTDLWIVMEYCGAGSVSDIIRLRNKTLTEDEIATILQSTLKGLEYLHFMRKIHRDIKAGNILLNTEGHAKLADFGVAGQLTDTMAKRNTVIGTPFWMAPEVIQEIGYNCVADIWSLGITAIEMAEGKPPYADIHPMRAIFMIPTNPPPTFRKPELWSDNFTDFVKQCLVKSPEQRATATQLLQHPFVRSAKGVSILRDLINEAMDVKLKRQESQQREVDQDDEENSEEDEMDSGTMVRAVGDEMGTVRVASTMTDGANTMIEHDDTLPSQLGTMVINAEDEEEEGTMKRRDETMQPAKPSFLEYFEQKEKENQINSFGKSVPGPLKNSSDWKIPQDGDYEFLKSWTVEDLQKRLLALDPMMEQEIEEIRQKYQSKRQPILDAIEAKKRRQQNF

[17] = biological target: Serine/threonine-protein kinase pim-2 (Homo sapiens, UniProt Q9P1W9)
[18] = biological target: Mitogen-activated protein kinase 11 (Homo sapiens, UniProt Q15759)
Mitogen-activated protein kinase 11, sequence (Q15759 whole entry): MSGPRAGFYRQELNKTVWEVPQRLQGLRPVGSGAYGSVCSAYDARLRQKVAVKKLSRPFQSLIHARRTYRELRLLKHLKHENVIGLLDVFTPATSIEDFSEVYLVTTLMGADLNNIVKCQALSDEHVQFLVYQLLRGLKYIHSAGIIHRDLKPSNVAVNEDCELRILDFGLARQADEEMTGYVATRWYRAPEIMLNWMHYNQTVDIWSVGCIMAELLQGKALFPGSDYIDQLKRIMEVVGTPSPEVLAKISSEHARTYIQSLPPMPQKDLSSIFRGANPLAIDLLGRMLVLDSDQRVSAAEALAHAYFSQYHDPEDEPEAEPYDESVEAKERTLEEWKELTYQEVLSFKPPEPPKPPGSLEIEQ

[19] = biological target: Ribosomal protein S6 kinase alpha-3 (Homo sapiens) (UniProt P51812)
Ribosomal protein S6 kinase alpha-3 (Homo sapiens), sequence (P51812 whole entry): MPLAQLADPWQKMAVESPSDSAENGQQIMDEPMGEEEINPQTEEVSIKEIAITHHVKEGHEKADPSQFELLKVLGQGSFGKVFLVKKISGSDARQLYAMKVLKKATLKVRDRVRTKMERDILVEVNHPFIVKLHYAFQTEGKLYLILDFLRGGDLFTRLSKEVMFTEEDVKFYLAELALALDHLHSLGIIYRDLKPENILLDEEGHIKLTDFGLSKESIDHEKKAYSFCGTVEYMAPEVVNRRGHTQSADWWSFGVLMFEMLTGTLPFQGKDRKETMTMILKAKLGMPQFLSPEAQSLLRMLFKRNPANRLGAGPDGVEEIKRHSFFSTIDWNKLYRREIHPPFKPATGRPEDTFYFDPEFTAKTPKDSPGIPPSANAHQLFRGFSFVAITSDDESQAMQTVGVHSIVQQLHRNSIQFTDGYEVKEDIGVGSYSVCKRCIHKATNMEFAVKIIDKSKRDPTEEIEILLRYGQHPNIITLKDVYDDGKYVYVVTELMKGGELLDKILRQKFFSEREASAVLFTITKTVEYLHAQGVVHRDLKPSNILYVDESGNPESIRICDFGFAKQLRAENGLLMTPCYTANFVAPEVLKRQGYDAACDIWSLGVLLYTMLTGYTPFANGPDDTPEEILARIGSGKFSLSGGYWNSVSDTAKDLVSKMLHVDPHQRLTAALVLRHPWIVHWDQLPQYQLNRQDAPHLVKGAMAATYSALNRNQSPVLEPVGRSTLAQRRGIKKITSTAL

[20] = biological target: Serine/threonine-protein kinase pim-3 (Homo sapiens) (UniProt Q86V86)

Cyclin-dependent kinase 16 (Homo sapiens), sequence (Q00536 whole entry): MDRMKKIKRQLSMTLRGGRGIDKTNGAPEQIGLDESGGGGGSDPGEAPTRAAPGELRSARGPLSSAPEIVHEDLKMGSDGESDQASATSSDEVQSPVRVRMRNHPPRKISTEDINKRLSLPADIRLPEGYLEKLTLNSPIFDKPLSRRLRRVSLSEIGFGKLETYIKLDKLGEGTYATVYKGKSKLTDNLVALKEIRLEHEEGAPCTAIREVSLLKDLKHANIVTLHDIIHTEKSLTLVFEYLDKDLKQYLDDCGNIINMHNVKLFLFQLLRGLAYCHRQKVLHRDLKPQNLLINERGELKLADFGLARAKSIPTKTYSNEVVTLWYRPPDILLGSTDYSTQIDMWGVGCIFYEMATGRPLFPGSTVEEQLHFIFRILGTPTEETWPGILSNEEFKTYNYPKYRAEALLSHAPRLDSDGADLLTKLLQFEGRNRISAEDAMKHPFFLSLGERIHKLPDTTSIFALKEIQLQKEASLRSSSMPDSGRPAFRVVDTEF
Serine/threonine-protein kinase pim-1 (Homo sapiens), sequence (P11309 whole entry, looked up): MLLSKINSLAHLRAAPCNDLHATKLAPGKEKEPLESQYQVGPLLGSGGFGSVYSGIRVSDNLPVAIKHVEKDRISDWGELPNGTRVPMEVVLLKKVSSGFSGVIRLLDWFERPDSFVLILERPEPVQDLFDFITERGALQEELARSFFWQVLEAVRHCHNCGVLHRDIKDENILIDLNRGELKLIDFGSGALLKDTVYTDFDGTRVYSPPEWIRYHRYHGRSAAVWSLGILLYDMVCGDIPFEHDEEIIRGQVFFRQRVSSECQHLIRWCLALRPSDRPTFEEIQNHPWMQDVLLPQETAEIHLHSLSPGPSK

Compound	ΔTm [1]	ΔTm [2]	ΔTm [3]	ΔTm [4]	ΔTm [5]	ΔTm [6]	ΔTm [7]	ΔTm [8]	ΔTm [9]	ΔTm [10]	ΔTm [11]	ΔTm [12]	ΔTm [13]	ΔTm [14]	ΔTm [15]	ΔTm [16]	ΔTm [17]	ΔTm [18]	ΔTm [19]	ΔTm [20]
CC(C)(C)c1cc(C=C2C(=O)C=CC2=O)cc(C(C)(C)C)c1O	4.4 °C	-1.1 °C	1.5 °C	-7.9 °C	0.4 °C	0 °C	1.1 °C	1.1 °C	-0.2 °C	0.9 °C	0.5 °C	0.2 °C	-1.5 °C	-5.5 °C	-0.4 °C	1.2 °C	-5.7 °C	-1.5 °C	-5 °C	0.4 °C
N#C/C(=C\c1ccc(O)c(O)c1)C(=O)NCc1ccccc1	-0.6 °C	2.1 °C	-0.1 °C	1.3 °C	0.7 °C	0.2 °C	0.7 °C	0.7 °C	-0.2 °C	2.9 °C	0.1 °C	0.4 °C	0.6 °C	-0.3 °C	0.1 °C	0.4 °C	1.9 °C	0.4 °C	1.2 °C	3.1 °C
COc1ccc(CNC(=O)Nc2ncc([N+](=O)[O-])s2)cc1	-0.8 °C	1.1 °C	0.4 °C	-0.9 °C	1.1 °C	0.6 °C	0.7 °C	0.6 °C	-0.5 °C	0.7 °C	-0.3 °C	0.3 °C	-0.1 °C	0.3 °C	0.4 °C	0.4 °C	0.2 °C	1 °C	–	1.5 °C
O=C(O)c1cc(NCc2cc(O)ccc2O)ccc1O	0.1 °C	0 °C	0 °C	-0.2 °C	-0.3 °C	-0.2 °C	0.3 °C	0.7 °C	0.1 °C	-0.5 °C	0.9 °C	0.5 °C	0.1 °C	-0.4 °C	-0.1 °C	-0.6 °C	0.7 °C	0.2 °C	0.3 °C	-0.2 °C
Nc1nccc(-c2c(-c3ccc(F)cc3)ncn2C2CCNCC2)n1	0.5 °C	-0.1 °C	1 °C	0.7 °C	1.5 °C	0.2 °C	0.1 °C	1.1 °C	0 °C	1.1 °C	-1.3 °C	-0.1 °C	0.2 °C	0.4 °C	0.3 °C	2.6 °C	0.2 °C	–	-0.1 °C	0 °C
O=C1C=C2C(=Nc3c2c2c(c4c3=NC3=C4CCC=C3)C=NC=2)CC1	0.8 °C	7.5 °C	3.8 °C	6.9 °C	3.9 °C	4.7 °C	11.9 °C	2.8 °C	–	6.4 °C	4.8 °C	11.5 °C	0.8 °C	6.6 °C	3.6 °C	2.1 °C	5.2 °C	1.2 °C	5.1 °C	1.7 °C
CN[C@@H]1CC2O[C@@](C)([C@@H]1OC)n1c3ccccc3c3c4c(c5c6ccccc6n2c5c31)C(=O)NC4	–	–	–	1.9 °C	24.8 °C	2 °C	–	2.8 °C	0.3 °C	20.1 °C	9.3 °C	9.6 °C	–	6.6 °C	–	17.9 °C	–	0.5 °C	–	17.7 °C

Other lines, results leading:

ΔTm [1]	ΔTm [2]	ΔTm [3]	ΔTm [4]	ΔTm [5]	ΔTm [6]	ΔTm [7]	ΔTm [8]	ΔTm [9]	ΔTm [10]	ΔTm [11]	ΔTm [12]	ΔTm [13]	ΔTm [14]	ΔTm [15]	ΔTm [16]	ΔTm [17]	ΔTm [18]	ΔTm [19]	ΔTm [20]	Compound
0 °C	3.7 °C	1.2 °C	6.9 °C	6.4 °C	1.8 °C	11.9 °C	0.7 °C	0.2 °C	1.8 °C	4.1 °C	3.5 °C	4.8 °C	0.3 °C	1.9 °C	7.8 °C	5.1 °C	3 °C	–	7.2 °C	CC(C)(C)c1nc2c3ccc(F)cc3c3c(=O)[nH]ccc3c2[nH]1
-0.2 °C	0.6 °C	0.1 °C	0.8 °C	0.5 °C	0.3 °C	0.3 °C	1 °C	0.2 °C	0 °C	0.4 °C	0.3 °C	0.5 °C	-0.1 °C	0 °C	0 °C	1.6 °C	0.3 °C	0.3 °C	2.2 °C	O=C(O)/C=C/c1cc(CO)ccc1CO
-0.7 °C	0 °C	1.1 °C	-0.4 °C	1.2 °C	0.5 °C	-0.2 °C	-0.1 °C	0.2 °C	0.2 °C	0.2 °C	0.6 °C	-0.1 °C	-0.1 °C	-0.3 °C	1.4 °C	0.6 °C	0 °C	–	1.3 °C	C[C@@H](N)[C@H]1CC[C@H](C(=O)Nc2ccncc2)CC1
5.8 °C	10 °C	1.3 °C	7.5 °C	1.4 °C	1.8 °C	2.1 °C	1.9 °C	0.9 °C	1.8 °C	2 °C	5.5 °C	1.4 °C	3.1 °C	2.3 °C	1.2 °C	7.4 °C	2.4 °C	–	10.9 °C	N#C/C(=C1/Nc2ccccc2S1)c1ccnc(NCCc2cccnc2)n1
